Reference: patent publication US12552748B2, “Pyridine (thio)amides as fungicidal compounds” (Bayer Aktiengesellschaft, priority 2020, dated 2026)
Marks after values point to notes of the source that are not given here.

Test: physchem
Assay type: physicochemical
In short: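 Reversed-phase HPLC per EEC directive 79/831 Annex V.A8, calibrated with straight-chain alkan-2-ones (C3–C16) of known Log P via linear interpolation of retention times. Lambda-max from UV spectra 200–400 nm at chromatographic peaks.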

Q: For `COc1ccc(CCN(C(C)=O)C(=O)c2cc(Cl)ncc2Oc2cccc(C(F)(F)F)c2)cc1` [Compound I-171], which LogP is on record?
A: Its LogP is 4.55^[a].

Q: With `O=C(NCC(F)(F)c1ccc(-c2ccncc2Cl)cc1Cl)c1cc(-c2ccncc2Cl)ncc1Oc1cccc(C(F)(F)F)c1` [Compound I-172] as the compound, how does the LogP read?
A: Its LogP is 4.33^[a].

Q: Which LogP does the source give for `C=Cc1cc(C(=O)NCC(F)(F)c2ccc(C)cc2C)c(Oc2cccc(C3CC3)c2F)cn1` [Compound I-173] here?
A: The LogP was 5.04^[a].

Q: For `CSc1c(Cl)ncc(Oc2cccc(C(F)(F)F)c2)c1C(=O)NCC(F)(F)c1ccc(C)cc1C` [Compound I-174], which LogP is on record?
A: The LogP was 4.85^[a].

Q: Which LogP does the source give for `Cc1ccc(C(F)(F)CNC(=O)c2c(Oc3cccc(Cl)c3)cnc(Cl)c2Cl)c(C)c1` [Compound I-175] here?
A: Its LogP is 4.85^[a].

Q: Which LogP does the source give for `CON(CCc1ccc(Cl)cc1Cl)C(=O)c1cc(Cl)ncc1Oc1cccc(C(F)(F)F)c1` [Compound I-177] here?
A: Its LogP is 5.24^[a].

Q: For `Cc1ccc(C(F)(F)CNC(=O)c2c(Br)cnc(Cl)c2Oc2cccc(Cl)c2)c(C)c1` [Compound I-178], which LogP is on record?
A: Its LogP is 5.04^[a].

Q: With `C#Cc1c(Cl)ncc(Oc2cccc(C(F)(F)F)c2)c1C(=O)NCC(F)(F)c1ccc(C)cc1C` [Compound I-179] as the compound, how does the LogP read?
A: The LogP was 5.74^[a].

Q: For `COc1cccc(Oc2cnc(C)cc2C(=O)NCCc2ccc(C)cc2C)c1` [Compound I-180], which LogP is on record?
A: Its LogP is 3.50^[a].

Q: With `Cc1ccc(C(F)(F)CNC(=O)c2c(Oc3cccc(C(F)(F)F)c3)cnc(Cl)c2F)c(C)c1` [Compound I-181] as the compound, how does the LogP read?
A: Its LogP is 4.85^[a].

Q: Which LogP does the source give for `COc1cccc(Oc2cnc(C)cc2C(=O)NCC(F)(F)c2ccc(C)cc2C)c1` [Compound I-182] here?
A: Its LogP is 3.71^[a].

Q: For `Cc1ccc(CCNC(=O)c2cc(C)ncc2Oc2cccc(C(F)F)c2)c(C)c1` [Compound I-183], which LogP is on record?
A: Its LogP is 3.56^[a].

Q: For `Cc1ccc(CCNC(=O)c2ccncc2Oc2cccc(C(F)(F)F)c2)c(C)c1` [Compound I-184], which LogP is on record?
A: The LogP was 3.11^[a].

Q: For `CCc1ccc(C(F)(F)CNC(=O)c2cc(Cl)ncc2Oc2cccc(C3CC3)c2)c(Cl)c1` [Compound I-185], which LogP is on record?
A: Its LogP is 5.49^[a].

Q: With `Cc1ccc(CCNC(=O)c2cc(C3CC3)ncc2Oc2cccc(C3CC3)c2)c(C)c1` [Compound I-186] as the compound, how does the LogP read?
A: Its LogP is 5.22^[a].

Q: Which LogP does the source give for `CCc1ccc(C(F)(F)CNC(=O)c2cc(CC)ncc2Oc2cccc(C3CC3)c2F)c(Cl)c1` [Compound I-187] here?
A: The LogP was 5.45^[a].

Q: With `Cc1ccc(C(F)(F)CNC(=O)c2c(Oc3cccc(C(F)(F)F)c3)cnc(Cl)c2-c2ccccc2)c(C)c1` [Compound I-188] as the compound, how does the LogP read?
A: Its LogP is 5.12^[a].

Q: With `C#Cc1cc(C(=O)NCCc2ccc(C)cc2C)c(Oc2cccc(C(F)(F)F)c2)cn1` [Compound I-191] as the compound, how does the LogP read?
A: Its LogP is 4.34^[a].

Q: For `O=C(NCCc1ccc(C(F)(F)F)cc1Cl)c1cc(Cl)ncc1Oc1cccc(C(F)(F)F)c1` [Compound I-192], which LogP is on record?
A: Its LogP is 4.95^[a].

Q: With `O=C(NCC(F)(F)c1ccc(C2CC2)cc1Cl)c1cc(Cl)ncc1Oc1cccc(C2CC2)c1` [Compound I-193] as the compound, how does the LogP read?
A: The LogP was 5.45^[a].

Q: For `Cc1ccc(CCNC(=O)c2cc(C3CC3)ncc2Oc2cccc(C(F)(F)F)c2)c(C)c1` [Compound I-194], which LogP is on record?
A: Its LogP is 4.97^[a].

Q: For `COC(=O)Cc1cccc(Oc2cnc(Cl)cc2C(=O)NCCc2ccc(C)cc2C)c1` [Compound I-196], which LogP is on record?
A: The LogP was 4.17^[a].

Q: With `O=C(NCCc1ccc2[nH]cnc2c1)c1cc(Cl)ncc1Oc1cccc(C(F)(F)F)c1` [Compound I-197] as the compound, how does the LogP read?
A: The LogP was 1.82^[a].

Q: For `C[Si](C)(C)C#Cc1ccc(C(F)(F)CNC(=O)c2cc(Cl)ncc2Oc2cccc(C(F)F)c2)c(Cl)c1` [Compound I-198], which LogP is on record?
A: The LogP was 5.97^[a].

Q: With `COc1c(Cl)ncc(Oc2cccc(C(F)(F)F)c2)c1C(=O)NCC(F)(F)c1ccc(C)cc1C` [Compound I-199] as the compound, how does the LogP read?
A: The LogP was 4.74^[a].

Q: For `COc1c(Cl)ncc(Oc2cccc(Cl)c2)c1C(=O)NCC(F)(F)c1ccc(C)cc1C` [Compound I-200], which LogP is on record?
A: The LogP was 4.62^[a].

Q: With `Cc1ccc(C(F)(F)CNC(=O)c2cc(Cl)ncc2Oc2cccc(C(F)(F)F)c2)c(Cl)c1` [Compound I-201] as the compound, how does the LogP read?
A: Its LogP is 4.66^[a].

Q: Which LogP does the source give for `Cc1cc(C(=O)NCC(F)c2ccc(Cl)cc2Cl)c(Oc2cccc(C(F)(F)F)c2)cn1` (stereo not shown) [Compound I-202] here?
A: Its LogP is 4.18^[a].

Q: Which LogP does the source give for `COCCc1ccc(C(F)(F)CNC(=O)c2cc(Cl)ncc2Oc2cccc(C(F)F)c2)c(Cl)c1` [Compound I-203] here?
A: The LogP was 4.14^[a].

Q: With `Cc1ccc(CCNC(=O)c2cc(-c3ccncc3Cl)ncc2Oc2cccc(C(F)(F)F)c2)c(C)c1` [Compound I-204] as the compound, how does the LogP read?
A: The LogP was 4.61^[a].

Q: For `Cc1cc(C(=O)NCC(F)c2ccc(Cl)cc2C)c(Oc2cccc(C3CC3)c2F)cn1` (stereo not shown) [Compound I-205], which LogP is on record?
A: The LogP was 4.37^[a].

Q: With `Cc1ccc(CCNC(=O)c2cc(-c3cn[nH]c3)ncc2Oc2cccc(C(F)(F)F)c2)c(C)c1` [Compound I-206] as the compound, how does the LogP read?
A: The LogP was 3.63^[a].

Q: With `N#CN(CCc1ccc(Cl)cc1)C(=O)c1cc(Cl)ncc1Oc1cccc(C(F)(F)F)c1` [Compound I-207] as the compound, how does the LogP read?
A: The LogP was 4.89^[a].

Q: For `Cc1ccc(CCNC(=O)c2cc(C(F)(F)F)ncc2Oc2cccc(C(F)(F)F)c2)c(C)c1` [Compound I-208], which LogP is on record?
A: Its LogP is 5.04^[a].

Q: Which LogP does the source give for `COc1cccc(Oc2cnc(C)cc2C(=O)NCC(F)c2ccc(C)cc2Cl)c1` (stereo not shown) [Compound I-209] here?
A: Its LogP is 3.62^[a].

Q: For `O=C(NCC(F)(F)c1ccc(Br)cc1Cl)c1cc(Cl)ncc1Oc1cccc(C2CC2)c1F` [Compound I-210], which LogP is on record?
A: The LogP was 5.31^[a].

Q: Which LogP does the source give for `O=C(NCC(F)(F)c1cc(Cl)sc1Cl)c1cc(Cl)ncc1Oc1cccc(C(F)(F)F)c1` [Compound I-211] here?
A: The LogP was 5.04^[a].

Q: For `CCc1cc(C(=O)NCC(F)(F)c2ccc(C)cc2C)c(Oc2cccc(C3CC3)c2)cn1` [Compound I-212], which LogP is on record?
A: The LogP was 4.90^[a].

Q: For `O=C(NCCc1csc2ccc(Cl)cc12)c1cc(Cl)ncc1Oc1cccc(C(F)(F)F)c1` [Compound I-213], which LogP is on record?
A: Its LogP is 5.00^[a].

Q: For `Cc1ccc(CCNC(=O)c2cc(Cl)ncc2Oc2cccc(C3CC3)c2)c(C)c1` [Compound I-214], which LogP is on record?
A: The LogP was 5.14^[a].

Q: Which LogP does the source give for `N#Cc1nc(Cl)cc(C(=O)NCC(F)(F)c2ccc(Br)cc2Cl)c1Oc1cccc(C(F)(F)F)c1` [Compound I-215] here?
A: The LogP was 4.81^[a].

Q: With `O=C(NCC(F)(F)c1ccc(C2CC2)cc1Cl)c1cc(C2CC2)ncc1Oc1cccc(C2CC2)c1F` [Compound I-216] as the compound, how does the LogP read?
A: Its LogP is 5.54^[a].

Q: For `CNc1c(Cl)ncc(Oc2cccc(C(F)(F)F)c2)c1C(=O)NCC(F)(F)c1ccc(C)cc1C` [Compound I-217], which LogP is on record?
A: The LogP was 4.44^[a].

Q: With `CNc1ncc(Oc2cccc(C(F)(F)F)c2)c(C(=O)NCC(F)(F)c2ccc(C)cc2C)c1I` [Compound I-218] as the compound, how does the LogP read?
A: Its LogP is 4.55^[a].

Q: For `COc1cccc(Oc2cnc(C)cc2C(=O)NCC(F)c2ccc(Cl)cc2Cl)c1` (stereo not shown) [Compound I-219], which LogP is on record?
A: The LogP was 3.75^[a].

Q: For `Cc1cc(C(=O)NCC(F)c2ccc(Cl)cc2Cl)c(Oc2cccc(C3CC3)c2)cn1` (stereo not shown) [Compound I-220], which LogP is on record?
A: Its LogP is 4.44^[a].

Q: With `N#Cc1nc(Cl)cc(C(=O)NCC(F)(F)c2ccc(Cl)cc2)c1Oc1cccc(C(F)(F)F)c1` [Compound I-221] as the compound, how does the LogP read?
A: The LogP was 4.39^[a].

Q: With `Cc1ccc(C(F)(F)CNC(=O)c2cc(Cl)ncc2Oc2cccc(C(F)(F)F)c2I)c(C)c1` [Compound I-222] as the compound, how does the LogP read?
A: Its LogP is 5.08^[a].

Q: With `Cc1ccc(CCNC(=O)c2cc(Cl)ncc2Oc2cnc3ccccc3c2)c(C)c1` [Compound I-223] as the compound, how does the LogP read?
A: The LogP was 3.34^[a].

Q: With `Cc1ccc(C(F)CNC(=O)c2cc(C)ncc2Oc2cccc(C(F)F)c2)c(Cl)c1` (stereo not shown) [Compound I-224] as the compound, how does the LogP read?
A: Its LogP is 3.63^[a].

Q: For `Cc1ccc(CCNC(=O)c2cc(Cl)nc(C#N)c2Oc2cccc(C(F)(F)F)c2)c(C)c1` [Compound I-225], which LogP is on record?
A: The LogP was 4.58^[a].

Q: For `Cc1ccc(CCNC(=O)c2cc(Cl)ncc2Oc2cccc(F)c2F)c(C)c1` [Compound I-226], which LogP is on record?
A: Its LogP is 4.38^[a].
